Test results reported in patent publication US20110230431A1, “FOSFOMYCIN/TOBRAMYCIN COMBINATIONS FOR THE TREATMENT AND PREVENTION OF OPHTHALMIC, OTOLOGICAL AND DERMATOLOGICAL INFECTIONS” (Gilead Sciences, Inc., priority 2008, published 2011).
Like-named read-outs stand apart in the source and are kept apart here.

What was measured:
E. coli = type: cell-based, Escherichia coli
Description: (§1) Development of resistance after a single exposure to antibiotic was determined for both clinical and reference isolates of P. aeruginosa, S. aureus, and E. coli. Late Log-phase cultures were centrifuged at 1,400×g at room temperature for 20 min and the cell pellets resuspended in CAMHB. […] The culture plates were incubated at 37° C. for 48 h and the number of colonies on each plate was enumerated manually. The spontaneous mutation frequency (SMF) resulting in antibiotic resistance was calculated by dividing the number of bacteria growing at the defined antibiotic concentration by the number of bacteria in the inoculum (Martinex, J L, Antimicrob Agents Chemother 2000; 44 (1):1771-1777).

S. aureus = type: cell-based, Staphylococcus aureus
Description: as §1

P. aeruginosa [1] = test: MIC by agar plate dilution method (CLSI); type: cell-based, Pseudomonas aeruginosa
Description: P. aeruginosa strains isolated from patients with cystic fibrosis (CF) were obtained from Children's Hospital and Regional Medical Center (Seattle, Wash.). Clinical isolates of Escherichia coli and Staphylococcus aureus were obtained from The Jones Group Laboratories (JMI; North Liberty, Iowa) and The Clinical Microbiology Institute (CMI; Wilsonville, Oreg.). P. aeruginosa 27853, S. aureus 29213, and E. coli 25922 served as quality control strains^1 and were obtained from The America Type Culture Collection (ATCC; Manassas, Va.). P. aeruginosa ATCC 27853, a fosfomycin and tobramycin susceptible strain, was used in macromolecular biosynthesis and tobramycin uptake experiments. Stock cultures were maintained at −80° C. in Cation-Adjusted Mueller-Hinton Broth (CAMHB) (Remel; Lenexa, Kans.) supplemented with 20% glycerol (VWR: West Chester, Pa.). Cultures for routine use were grown on tryptic soy agar plates+5% sheeps blood (PML Microbiologicals Inc.; Wilsonville, Oreg.) and stored at 4° C.
MICs were determined by the agar plate dilution method according to CLSI guidelines (National Committee for Clinical Laboratory Standards. M7-A6. 6th ed. Villanova (Pa.): NCCLS, 2003; M100-S14. Villanova (Pa.): NCCLS, 2004).

P. aeruginosa ATCC 27853 = test: Time-kill experiments in CAMHB with 2% mucin; type: cell-based, Pseudomonas aeruginosa
Description: Time-kill experiments were performed according to a modified CLSI method (National Committee for Clinical Laboratory Standards. M-26A. Villanova (Pa.): NCCLS, 1999). […] Bacterial cultures and antibiotic(s) were incubated at 37° C. in a shaking water bath (200 rpm) and killing activity assessed at 0, 1, 2, 4, 6 and 24 h. Antibiotics that reduced the original inoculum by ≧3-Log10 were considered bactericidal. Antibiotics that reduced the original inoculum by ≦2-Log10 were considered bacteriostatic.

[2] = tested on: Protein Synthesis in P. aeruginosa ATCC 27853; test: Macromolecular biosynthesis: 3H-amino acid incorporation; type: cell-based, Pseudomonas aeruginosa; details: for % Inhibition Protein: at 2 h relative to no-drug control, single experiment
Description: Picataway, N.J.) and N-acetyl-D-Glucosamine (^3H-NAG) (GE Healthcare Bio-Sciences), respectively (Baum, E Z, Antimicrob Agents Chernother 2001; 45 (11): 3182-3188). A single colony of P. aeruginosa ATCC 27853 was inoculated into 10 mL of CAMHB and incubated for 16 h, at 37° C., 200 rpm in a shaking water bath. […] At various time points, 100 μl aliquots (triplicate) of culture were removed and added to 100 μl of 20% TCA (VWR) in 96-well flat bottom trays (VWR). Plates were incubated on crushed ice for 60 min to precipitate the incorporated ^3H-precursors. Samples were harvested onto glass fibre filters (GFC) (PerkinElmer; Waltham, Mass.). Filters were washed two times with 35 mL of normal saline to remove unincorporated isotope followed by one wash with 35 mL of 90% ETOH (VWR). Filters were dried under a lamp for 1 h to reduce remaining moisture and then sealed in bags containing 5 mL of scintillation cocktail (Betaplate Scint; PerkinElmer). Counts per minute (CPM) were determined using a Wallac MicroBeta Trilux (PerkinElmer). Mean CPM±standard deviation (SD) were determined for each treatment group. Background counts consisting of a media-only sample were subtracted from the no-drug and antibiotic treatment groups. The percent inhibition of incorporation was determined relative to the no-drug controls. The activities of the three drugs were compared by calculating the time to 50% inhibition (T1/2), and statistical differences at each time point were evaluated by the Analysis of Variance (ANOVA; GraphPad Prisma software package 3.03; GraphPad Software, Inc., San Diego, Calif.). Each curve represents 4 replicate experiments, each time point performed in triplicate.

P. aeruginosa [3] = type: cell-based, Pseudomonas aeruginosa
Description: as §1

## tobramycin sulfate
E. coli; E. coli ATCC 25922, 4× MIC
  Frequency of Resistance 4× MIC: 2.5 × 10^−6
E. coli; E. coli ATCC 25922, 8× MIC
  Frequency of Resistance 8× MIC: 1.5 × 10^−7
E. coli; E. coli ATCC 25922, 16× MIC
  Frequency of Resistance 16× MIC: 8.7 × 10^−8
E. coli; E. coli C032, 4× MIC
  Frequency of Resistance 4× MIC: 1.3 × 10^−6
E. coli; E. coli C032, 8× MIC
  Frequency of Resistance 8× MIC: 5.5 × 10^−6
E. coli; E. coli C032, 16× MIC
  Frequency of Resistance 16× MIC: 6.2 × 10^−7
E. coli; E. coli C036, 4× MIC
  Frequency of Resistance 4× MIC: 4.4 × 10^−6
E. coli; E. coli C036, 8× MIC
  Frequency of Resistance 8× MIC: 4.7 × 10^−7
E. coli; E. coli C036, 16× MIC
  Frequency of Resistance 16× MIC: 1.9 × 10^−9
E. coli; E. coli C037, 4× MIC
  Frequency of Resistance 4× MIC: 1.0 × 10^−6
E. coli; E. coli C037, 8× MIC
  Frequency of Resistance 8× MIC: 4.4 × 10^−6
E. coli; E. coli C037, 16× MIC
  Frequency of Resistance 16× MIC: 1.1 × 10^−7
E. coli; E. coli C294, 4× MIC
  Frequency of Resistance 4× MIC: 6.6 × 10^−5
E. coli; E. coli C294, 8× MIC
  Frequency of Resistance 8× MIC: 1.3 × 10^−6
E. coli; E. coli C294, 16× MIC
  Frequency of Resistance 16× MIC: <7.2 × 10^−9
S. aureus; S. aureus ATCC 29213, 4× MIC
  Frequency of Resistance 4× MIC: 1.6 × 10^−7
S. aureus; S. aureus ATCC 29213, 8× MIC
  Frequency of Resistance 8× MIC: 3.9 × 10^−8
S. aureus; S. aureus ATCC 29213, 16× MIC
  Frequency of Resistance 16× MIC: <1.8 × 10^−10
S. aureus; S. aureus C051, 4× MIC
  Frequency of Resistance 4× MIC: 3.5 × 10^−6
S. aureus; S. aureus C051, 8× MIC
  Frequency of Resistance 8× MIC: 1.5 × 10^−8
S. aureus; S. aureus C051, 16× MIC
  Frequency of Resistance 16× MIC: <2.0 × 10^−10
S. aureus; S. aureus C053, 4× MIC
  Frequency of Resistance 4× MIC: 2.0 × 10^−7
S. aureus; S. aureus C053, 16× MIC
  Frequency of Resistance 16× MIC: <2.3 × 10^−10
S. aureus; S. aureus C055, 4× MIC
  Frequency of Resistance 4× MIC: 3.8 × 10^−7
S. aureus; S. aureus C055, 8× MIC
  Frequency of Resistance 8× MIC: <4.3 × 10^−9
S. aureus; S. aureus C055, 16× MIC
  Frequency of Resistance 16× MIC: <2.3 × 10^−10
S. aureus; S. aureus C057, 4× MIC
  Frequency of Resistance 4× MIC: 1.1 × 10^−6
S. aureus; S. aureus C057, 8× MIC
  Frequency of Resistance 8× MIC: <1.4 × 10^−10
S. aureus; S. aureus C057, 16× MIC
  Frequency of Resistance 16× MIC: <3.2 × 10^−10
P. aeruginosa [1]; P. aeruginosa ATCC 27853
  MIC: 0.5 µg/mL
P. aeruginosa [1]; P. aeruginosa C002
  MIC: 0.5 µg/mL
P. aeruginosa [1]; P. aeruginosa C003
  MIC: 0.5 µg/mL
P. aeruginosa [1]; P. aeruginosa C013
  MIC: 0.5 µg/mL
P. aeruginosa [1]; P. aeruginosa C014
  MIC: 0.5 µg/mL
P. aeruginosa ATCC 27853; 24 h, FT4:1 16 μg/mL, fosfomycin 12.8 μg/mL, tobramycin 3.2 μg/mL, mucin, FIG. 4
  killing activity at 24 h: re-growth of the bacterial culture
P. aeruginosa ATCC 27853; FT4:1 at 4×MIC (16 μg/mL), component weights fosfomycin 12.8 μg/mL, tobramycin 3.2 μg/mL, mucin, FIG. 4
  killing activity: bacteriostatic killing
P. aeruginosa ATCC 27853; increase from 2 μg/mL to 4 μg/mL (2-fold), FIG. 2
  bacterial killing on increasing the concentration: > 4 Log10
P. aeruginosa ATCC 27853; multiples of the MIC, FIG. 1-3
  killing activity (bactericidal ≧3-Log10, bacteriostatic ≦2-Log10): rapidly bactericidal
P. aeruginosa ATCC 27853; tobramycin 3.2 μg/mL in the presence of 12.8 μg/mL fosfomycin, FIG. 4
  enhancement of bacterial killing in the presence of fosfomycin: 3 Log10 CFU/mL
[2]; 0.8 μg/mL
  % Inhibition Protein: 2%
[2]; 1.6 μg/mL (FIG. 5)
  time to 50% inhibition (T1/2) of protein synthesis: > 3 h
[2]; 1.6 μg/mL
  % Inhibition Protein: 6%
[2]; 3.2 μg/mL
  % Inhibition Protein: 42%
P. aeruginosa [3]; P. aeruginosa ATCC 27853, 4× MIC
  Frequency of Resistance 4× MIC: 3.0 × 10^−5
P. aeruginosa [3]; P. aeruginosa ATCC 27853, 8× MIC
  Frequency of Resistance 8× MIC: 2.2 × 10^−7
P. aeruginosa [3]; P. aeruginosa ATCC 27853, 16× MIC
  Frequency of Resistance 16× MIC: 1.6 × 10^−8
P. aeruginosa [3]; P. aeruginosa C002, 4× MIC
  Frequency of Resistance 4× MIC: 1.1 × 10^−5
P. aeruginosa [3]; P. aeruginosa C002, 8× MIC
  Frequency of Resistance 8× MIC: 1.1 × 10^−7
P. aeruginosa [3]; P. aeruginosa C002, 16× MIC
  Frequency of Resistance 16× MIC: 4.4 × 10^−8
P. aeruginosa [3]; P. aeruginosa C003, 4× MIC
  Frequency of Resistance 4× MIC: 4.2 × 10^−5
P. aeruginosa [3]; P. aeruginosa C003, 8× MIC
  Frequency of Resistance 8× MIC: 1.8 × 10^−7
P. aeruginosa [3]; P. aeruginosa C003, 16× MIC
  Frequency of Resistance 16× MIC: 7.2 × 10^−8
P. aeruginosa [3]; P. aeruginosa C013, 4× MIC
  Frequency of Resistance 4× MIC: 1.4 × 10^−6
P. aeruginosa [3]; P. aeruginosa C013, 8× MIC
  Frequency of Resistance 8× MIC: 3.7 × 10^−6
P. aeruginosa [3]; P. aeruginosa C013, 16× MIC
  Frequency of Resistance 16× MIC: 8.2 × 10^−7
P. aeruginosa [3]; P. aeruginosa C014, 4× MIC
  Frequency of Resistance 4× MIC: 1.3 × 10^−6
P. aeruginosa [3]; P. aeruginosa C014, 8× MIC
  Frequency of Resistance 8× MIC: 1.1 × 10^−7
P. aeruginosa [3]; P. aeruginosa C014, 16× MIC
  Frequency of Resistance 16× MIC: 7.9 × 10^−7
